Assay results published in patent US11344510B2, “Arylcyclohexylamine derivatives and their use in the treatment of psychiatric disorders” (Gilgamesh Pharmaceuticals, Inc., priority 2019, dated 2022).
Where two headings read alike, the source gives them in different places.

What was measured:
[1] = RLM stability (High Activity); assay type: in vitro ADME, Sprague Dawley rats; conditions: for half-life at 1 μM / microsomal CLint at 1 μM: male, Sprague Dawley, rat, liver microsomes, pH 7.4, Condition 2 (High Activity), 1.0 mg protein/mL
Procedure: RLM Stability (High Activity). Pooled RLM from male Sprague Dawley rats (XenoTech R1000, lot #1910100) were used. Microsomal incubations were carried out in 96-well plates in 5 aliquots of 40 μL each (one for each time point). Liver microsomal incubation medium consisted of PBS (100 mM, pH 7.4), MgCl2 (3.3 mM), NADPH (3 mM), glucose-6-phosphate (5.3 mM), and glucose-6-phosphate dehydrogenase (0.67 units/mL), with 1.0 mg of liver microsomal protein per mL. Control incubations were performed by replacing the NADPH-cofactor system with PBS. Test compounds (1 μM, final solvent concentration 1.6%) were incubated with microsomes at 37° C., shaking at 100 rpm. Incubations were performed in duplicate. Five time points over 60 minutes were analyzed. The reactions were stopped by adding 9 volumes of 90% acetonitrile-water to incubation aliquots, followed by protein sedimentation by centrifugation at 5500 rpm for 3 minutes. Supernatants were analyzed for parent compound remaining using a fit-for-purpose liquid chromatography-tandem mass spectrometry (LC-MS/MS) method, with authentic samples of each analyte used for identity confirmation.
Data Analysis. The elimination constant (kel), half-life (t1/2) and intrinsic clearance (Clint) were determined in a plot of […] versus time, using linear regression analysis.

[2] = Exposure after intraperitoneal administration in mice; assay type: in vivo; conditions: CD-1 mice; for Cmax and AUC compared to ketamine at 10 mg/kg: plasma and brain; for AUC(0-inf) / Cmax: male, mouse
Procedure: Animals. Male CD-1 mice were used in these studies Animals were randomly assigned to treatment groups and were fasted for 4 h before dosing.
Drugs. Test compounds (HCl salts) were dissolved in de-ionized water and administered intraperitoneally (ip) at the indicated doses (calculated based on freebase) and at a volume of 5 mL/kg body weight. Compounds were tested as the racemates (indicated by “rac” nomenclature) or pure enantiomers (indicated by “R” or “S” nomenclature), as indicated.
Pharmacokinetics. Blood samples were collected under 2,2,2-tribromoethanol anesthesia (150 mg/kg, ip) from the orbital sinus at 0.083, 0.25, 0.5, 1, and 2 h (ketamine, 4 animals per time point) or 0.083, 0.25, 0.5, 1, 2, 4, and 8 h (14R and 14S, 4 animals per time point) into microcontainers containing K2EDTA Immediately after collection of blood, mice were euthanized by cervical dislocation and brain samples were collected at the same time points. All samples were immediately processed, flash-frozen, and stored at −70° C. until subsequent analysis. Plasma samples were separated by centrifugation of whole blood and aliquots (50 μL) were mixed with 200 μL, of internal standard solution (400 ng/mL in 1:1 v/v CH3CN:MeOH). After mixing by pipetting and centrifuging for 4 min at 6000 rpm, 0.5 μL of each supernatant was analyzed for drug using a fit-for-purpose liquid chromatography-tandem mass spectrometry (LC-MS/MS) method, with authentic samples of each analyte used for calibration and identification. Brain samples (weight 200 mg±1 mg) were dispersed in 800 μL of internal standard solution (400 ng/mL in 4:1 v/v MeOH:water) using zirconium oxide beads (115 mg±5 mg) in The Bullet Blender® homogenizer for 30 s at speed 8. After homogenization, the samples were centrifuged for 4 min at 14,000 rpm and 0.5 μL of each supernatant was analyzed for drug using a fit-for-purpose LC-MS/MS method, with authentic samples of each analyte used for calibration and identification.
Data Analysis. The drug concentrations of samples below the lower limit of quantitation (LLOQ) were designated as zero. Pharmacokinetic data analysis was performed using noncompartmental, bolus injection or extravascular input analysis models in WinNonlin 5.2 (PharSight). Data points below LLOQ were presented as missing to improve validity of t112 calculations.

[3] = Oral bioavailability in rats, Method B; assay type: in vivo; conditions: Sprague Dawley rats; for AUC(0-t) / half-life / Cmax: male, rat; for AUC(0-t) / half-life / Cmax / F: plasma, Method B; for F: 10 mg/kg
Procedure: Animals. Male Sprague Dawley rats were used in these studies. Animals were randomly assigned to treatment groups and were fasted overnight before oral dosing.
Drugs. Test compounds were dissolved in a vehicle consisting of normal saline (compounds 14R, 88R, 29rac, and 27rac) or a mixture of 5% v/v N-methyl-2-pyrrolidone, 5% v/v Solutol HS-15, and 90% v/v normal saline (compounds 84R and 84S). They were then administered intravenously (iv) or orally (po) at a dose of 10 mg/kg (calculated based on freebase) and at a volume of 5 mL/kg body weight. Compounds were tested as the racemates (indicated by “rac” nomenclature) or pure enantiomers (indicated by “R” or “S” nomenclature).
Sample Collection and Bioanalysis. Blood samples (approximately 120 μL) were collected under light isoflurane anesthesia (Surgivet®) from the retro orbital plexus at 0.08, 0.25, 0.5, 1, 2, 4, 8, and 24 h (total 8 time points/rat, 4 rats per administration route per compound). Immediately after blood collection, plasma was harvested by centrifugation at 4000 rpm for 10 min at 4° C. and samples were stored at −70±10° C. until bioanalysis. For bioanalysis, 25 μL aliquots of plasma study samples or spiked plasma calibration standards were added to individual pre-labeled micro-centrifuge tubes followed by 100 μL of an internal standard solution (glipizide, 500 ng/mL in acetonitrile) except for blanks, where 100 μL of acetonitrile was added. Samples were vortexed for 5 minutes and then centrifuged for 10 minutes at 4000 rpm at 4° C. Following centrifugation, 100 μL of each clear supernatant was transferred to a 96 well plate and analyzed with a fit-for-purpose LC-MS/MS method, with authentic samples of each analyte used for calibration and identification. In the case of compounds 14R and 88R, their metabolite 11R was also quantified in plasma samples.
Data Analysis. Pharmacokinetic parameters were estimated using the non-compartmental analysis tool of Phoenix® WinNonlin software (Ver 8.0).

[4] = 10 mg/kg iv, read-out: AUC0-last (iv) (converted)
[5] = 10 mg/kg iv, read-out: t1/2 (iv)
[6] = 10 mg/kg po, read-out: AUC0-last (po) (converted)
[7] = 10 mg/kg po, read-out: t1/2 (po)

Compound: CN[C@@]1(c2ccccc2)CCCCC1=O [Compound 14R, (R)-2-(methylamino)-2-phenylcyclohexan-1-one]
- half-life at 1 μM [1]: 18.2 min
- microsomal CLint at 1 μM [1]: 38 µL/min/mg
- Cmax and AUC compared to ketamine at 10 mg/kg ([2]; 3.16 mg/kg ip): comparable to, or higher than
- AUC(0-inf) ([2]; brain, 3.16 mg/kg ip): 2530 ng·h/mL
- Cmax ([2]; brain, 3.16 mg/kg ip): 3320 ng/mL
- AUC(0-inf) ([2]; plasma, 3.16 mg/kg ip): 703 ng·h/mL
- Cmax ([2]; plasma, 3.16 mg/kg ip): 1010 ng/mL
- exposure (AUC) to 14R relative to 14S ([2]; same dose, 3.16 mg/kg ip): roughly 2 fold
- AUC(0-t) [3, 4]: 1960 ng·h/mL
- half-life [3, 5]: 37.8 min
- Cmax ([3]; 10 mg/kg po): 235 ng/mL
- AUC(0-t) [3, 6]: 237 ng·h/mL
- half-life [3, 7]: 30.6 min
- F [3]: 12%

Compound: [2H]C([2H])([2H])N[C@@]1(c2ccccc2)CCCCC1=O [Compound 88R, (R)-2-((methyl-d3)amino)-2-phenylcyclohexan-1-one]
- metabolic stability compared to non-deuterated counterparts 14R and 14S ([1]; High Activity): increased metabolic stability
- half-life at 1 μM [1]: 39.6 min
- microsomal CLint at 1 μM [1]: 18 µL/min/mg
- formation of the metabolite 11R compared to 14R after oral administration ([3]; 10 mg/kg po): reduced
- AUC(0-t) [3, 4]: 1670 ng·h/mL
- half-life [3, 5]: 59.4 min
- Cmax ([3]; 10 mg/kg po): 393 ng/mL
- AUC(0-t) [3, 6]: 335 ng·h/mL
- half-life [3, 7]: 45.6 min
- F [3]: 20%

Compound: N[C@]1(c2ccccc2)CCCCC1=O [Compound 11S, (S)-2-amino-2-phenyl-cyclohexan-1-one]
- half-life at 1 μM [1]: 109 min
- microsomal CLint at 1 μM [1]: 6 µL/min/mg

Compound: O=C1CCCCC1(c1ccccc1)N1CCCC1 (racemic) [Compound 27rac, 2-phenyl-2-(pyrrolidin-1-yl)cyclohexan-1-one]
- AUC(0-t) [3, 4]: 1710 ng·h/mL
- half-life [3, 5]: 97.2 min
- Cmax ([3]; 10 mg/kg po): 197 ng/mL
- AUC(0-t) [3, 6]: 563 ng·h/mL
- half-life [3, 7]: 145 min
- F [3]: 33%

Compound: N[C@@]1(c2ccccc2)CCCCC1=O [Compound 11R, (R)-2-amino-2-phenyl-cyclohexan-1-one]
- half-life at 1 μM [1]: 103 min
- microsomal CLint at 1 μM [1]: 7 µL/min/mg

Compound: CN[C@]1(c2cccc(F)c2)CCCCC1=O [Compound 19S, (5)-2-(3-fluorophenyl)-2-(methylamino)cyclohexan-1-one]
- half-life at 1 μM [1]: 18.8 min
- microsomal CLint at 1 μM [1]: 37 µL/min/mg

Compound: COCCNC1(c2ccccc2)CCCCC1=O (racemic) [Compound 29rac, 2-((2-methoxyethyl)amino)-2-phenylcyclohexan-1-one]
- half-life at 1 μM [1]: 17.6 min
- microsomal CLint at 1 μM [1]: 39 µL/min/mg
- AUC(0-t) [3, 4]: 1710 ng·h/mL
- half-life [3, 5]: 66 min
- Cmax ([3]; 10 mg/kg po): 321 ng/mL
- AUC(0-t) [3, 6]: 353 ng·h/mL
- half-life [3, 7]: 69 min
- F [3]: 21%

Compound: O=C1CCCC[C@@]1(c1ccccc1)N1CCC1 [Compound 84S, (S)-2-(azetidin-1-yl)-2-phenyl-cyclohexan-1-one]
- half-life at 1 μM [1]: 30.3 min
- microsomal CLint at 1 μM [1]: 23 µL/min/mg
- AUC(0-t) [3, 4]: 482 ng·h/mL
- half-life [3, 5]: 46.2 min
- Cmax ([3]; 10 mg/kg po): 69.8 ng/mL
- AUC(0-t) [3, 6]: 77 ng·h/mL
- half-life [3, 7]: 37.2 min
- F [3]: 16%

Compound: CN[C@]1(c2ccccc2)CCCCC1=O [Compound 14S, (S)-2-(methylamino)-2-phenylcyclohexan-1-one]
- half-life at 1 μM [1]: 31.6 min
- microsomal CLint at 1 μM [1]: 22 µL/min/mg
- Cmax and AUC compared to ketamine at 10 mg/kg ([2]; 3.16 mg/kg ip): comparable to, or higher than
- AUC(0-inf) ([2]; brain, 3.16 mg/kg ip): 1220 ng·h/mL
- Cmax ([2]; brain, 3.16 mg/kg ip): 3370 ng/mL
- AUC(0-inf) ([2]; plasma, 3.16 mg/kg ip): 385 ng·h/mL
- Cmax ([2]; plasma, 3.16 mg/kg ip): 875 ng/mL

Compound: O=C1CCCC[C@]1(c1ccccc1)N1CCC1 [Compound 84R, (R)-2-(azetidin-1-yl)-2-phenyl-cyclohexan-1-one]
- half-life at 1 μM [1]: 21.8 min
- microsomal CLint at 1 μM [1]: 32 µL/min/mg
- AUC(0-t) [3, 4]: 369 ng·h/mL
- half-life [3, 5]: 37.2 min
- Cmax ([3]; 10 mg/kg po): 15.5 ng/mL
- AUC(0-t) [3, 6]: 11.9 ng·h/mL
- half-life [3, 7]: 27 min
- F [3]: 3%

Compound: CNC1(c2ccccc2Cl)CCCCC1=O (racemic) [rac-ketamine, racemic ketamine, reference compound]
- half-life at 1 μM [1]: 4.6 min
- microsomal CLint at 1 μM [1]: 151 µL/min/mg
- AUC(0-inf) ([2]; brain, 10 mg/kg ip): 725 ng·h/mL
- Cmax ([2]; brain, 10 mg/kg ip): 2250 ng/mL
- AUC(0-inf) ([2]; plasma, 10 mg/kg ip): 382 ng·h/mL
- Cmax ([2]; plasma, 10 mg/kg ip): 822 ng/mL
